Measurements reported in ChEMBL document CHEMBL5380833 (J Med Chem, 2023).
The source made the active and inactive calls. The calls are words filed in the database; no cut-off is given here.

Columns and labels:
[1] = target: T1, Protein cereblon/Tyrosine-protein kinase ITK/TSK (Homo sapiens, UniProt Q08881+Q96SW2); assay: PROTAC activity at CRBN/ITK in human Jurkat cells assessed as induction of ITK degradation by Western blot analysis; assay type: cell-based; conditions: read-out: EC50
Target sequence in this assay (Q08881 whole entry): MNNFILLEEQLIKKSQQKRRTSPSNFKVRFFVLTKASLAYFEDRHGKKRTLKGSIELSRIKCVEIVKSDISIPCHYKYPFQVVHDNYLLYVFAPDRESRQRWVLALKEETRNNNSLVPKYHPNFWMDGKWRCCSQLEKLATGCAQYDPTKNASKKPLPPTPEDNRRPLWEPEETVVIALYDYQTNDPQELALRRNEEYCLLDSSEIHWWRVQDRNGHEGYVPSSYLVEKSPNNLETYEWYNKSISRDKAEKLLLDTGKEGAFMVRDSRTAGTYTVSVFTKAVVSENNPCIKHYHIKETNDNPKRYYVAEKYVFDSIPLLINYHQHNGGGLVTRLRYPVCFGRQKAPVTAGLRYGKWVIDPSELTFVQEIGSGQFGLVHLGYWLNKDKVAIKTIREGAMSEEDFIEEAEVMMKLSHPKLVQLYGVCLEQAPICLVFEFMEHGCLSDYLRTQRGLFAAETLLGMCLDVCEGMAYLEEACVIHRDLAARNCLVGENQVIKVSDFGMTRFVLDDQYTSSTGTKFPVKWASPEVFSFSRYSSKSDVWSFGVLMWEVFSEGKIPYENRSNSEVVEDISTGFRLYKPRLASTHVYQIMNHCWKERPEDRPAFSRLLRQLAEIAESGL
Target sequence in this assay (Q96SW2 whole entry): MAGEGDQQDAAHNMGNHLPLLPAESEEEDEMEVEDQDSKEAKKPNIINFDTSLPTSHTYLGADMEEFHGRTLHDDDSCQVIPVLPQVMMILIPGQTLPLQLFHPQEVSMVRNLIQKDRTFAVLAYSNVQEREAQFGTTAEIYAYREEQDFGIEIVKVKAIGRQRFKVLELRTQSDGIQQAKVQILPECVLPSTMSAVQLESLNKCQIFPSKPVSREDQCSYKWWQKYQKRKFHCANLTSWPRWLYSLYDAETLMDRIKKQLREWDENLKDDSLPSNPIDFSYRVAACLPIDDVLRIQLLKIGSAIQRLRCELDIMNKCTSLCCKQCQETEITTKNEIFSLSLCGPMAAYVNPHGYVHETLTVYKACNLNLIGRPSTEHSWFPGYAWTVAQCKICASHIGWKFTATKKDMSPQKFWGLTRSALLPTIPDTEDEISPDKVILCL

[2] = target: T1, Protein cereblon/Tyrosine-protein kinase ITK/TSK; assay: PROTAC activity at CRBN/ITK in human Jurkat cells assessed as maximum degradation at 0.01 to 10 uM by Western blot analysis relative to control; assay type: cell-based; conditions: dose 0.01-10 µM
Target sequence in this assay (Q08881 whole entry, looked up): as the sequence (Q08881 whole entry) above
Target sequence in this assay (Q96SW2 whole entry, looked up): as the sequence (Q96SW2 whole entry) above

Interleukin-2 = Interleukin-2 (Homo sapiens, UniProt P60568); assay: Inhibition of IL-2 in human Jurkat cells pretreated with compound for 4 hrs followed by anti-CD3/CD28 stimulation by ELISA analysis; assay type: cell-based
[3] = AUC (0 to t) in Balb/c mouse at 5 mg/kg, iv measured upto 24 hrs by LC-MS/MS analysis; assay type: ADME, organism-based; set-up: dose 5 mg/kg, time < 24 hrs, route iv; conditions: in vivo
[4] = AUC (0 to t) in Balb/c mouse at 10 mg/kg, ip measured upto 24 hrs by LC-MS/MS analysis; assay type: ADME, organism-based; set-up: time < 24 hrs, dose 10 mg/kg, route ip; conditions: in vivo
[5] = AUC (0 to infinity) in Balb/c mouse at 5 mg/kg, iv measured upto 24 hrs by LC-MS/MS analysis; assay type: ADME, organism-based; set-up: time < 24 hrs, dose 5 mg/kg, route iv; conditions: in vivo
[6] = AUC (0 to infinity) in Balb/c mouse at 10 mg/kg, ip measured upto 24 hrs by LC-MS/MS analysis; assay type: ADME, organism-based; set-up: dose 10 mg/kg, time < 24 hrs, route ip; conditions: in vivo
[7] = Half life in Balb/c mouse at 5 mg/kg, iv measured upto 24 hrs by LC-MS/MS analysis; assay type: ADME, organism-based; conditions: in vivo
[8] = Half life in Balb/c mouse at 10 mg/kg, ip measured upto 24 hrs by LC-MS/MS analysis; assay type: ADME, organism-based; conditions: in vivo
[9] = Volume of distribution at steady state in Balb/c mouse at 5 mg/kg, iv measured upto 24 hrs by LC-MS/MS analysis; assay type: ADME, organism-based; conditions: in vivo, read-out: Vdss
[10] = Volume of distribution at steady state in Balb/c mouse at 10 mg/kg, ip measured upto 24 hrs by LC-MS/MS analysis; assay type: ADME, organism-based; conditions: in vivo
[11] = Clearance in Balb/c mouse at 5 mg/kg, iv measured upto 24 hrs by LC-MS/MS analysis; assay type: ADME, organism-based; conditions: in vivo
[12] = Clearance in Balb/c mouse at 10 mg/kg, ip measured upto 24 hrs by LC-MS/MS analysis; assay type: ADME, organism-based; conditions: in vivo
[13] = Cmax in Balb/c mouse at 5 mg/kg, iv measured upto 24 hrs by LC-MS/MS analysis; assay type: ADME, organism-based; set-up: time < 24 hrs, dose 5 mg/kg, route iv; conditions: in vivo
[14] = Cmax in Balb/c mouse at 10 mg/kg, ip measured upto 24 hrs by LC-MS/MS analysis; assay type: ADME, organism-based; set-up: dose 10 mg/kg, time < 24 hrs, route ip; conditions: in vivo
[15] = MRT last in Balb/c mouse at 5 mg/kg, iv measured upto 24 hrs by LC-MS/MS analysis; assay type: ADME, organism-based; conditions: Balb/c, in vivo
[16] = MRT last in Balb/c mouse at 10 mg/kg, ip measured upto 24 hrs by LC-MS/MS analysis; assay type: ADME, organism-based; conditions: in vivo
[17] = Bioavailability in Balb/c mouse at 10 mg/kg, ip measured upto 24 hrs by LC-MS/MS analysis; assay type: ADME, organism-based; conditions: in vivo
[18] = Toxicity in Balb/c mouse assessed as drug tolerance at 5 mg/kg, iv measured upto 24 hrs by LC-MS/MS analysis; assay type: organism-based; conditions: in vivo
[19] = Toxicity in Balb/c mouse assessed as drug tolerance at 10 mg/kg, ip measured upto 24 hrs by LC-MS/MS analysis; assay type: organism-based; conditions: in vivo
[20] = Toxicity in Balb/c mouse assessed as side effects at 5 mg/kg, iv measured upto 24 hrs by LC-MS/MS analysis; assay type: organism-based; conditions: in vivo
[21] = Toxicity in Balb/c mouse assessed as side effects at 10 mg/kg, ip measured upto 24 hrs by LC-MS/MS analysis; assay type: organism-based; conditions: in vivo
[22] = target: T1, Protein cereblon/Tyrosine-protein kinase ITK/TSK; assay: PROTAC activity at CRBN/ITK in human Jurkat cells assessed as downregulation of ITK protein by measuring fold change at 100 nM measured after 8 hrs; assay type: cell-based
Target sequence in this assay (Q08881 whole entry, looked up): as the sequence (Q08881 whole entry) above
Target sequence in this assay (Q96SW2 whole entry, looked up): as the sequence (Q96SW2 whole entry) above

Jurkat [23] = assay: Effect on IKZF1 expression in human Jurkat cells at 100 nM measured after 8 hrs by proteomics analysis; assay type: functional, cell-based
Jurkat [24] = assay: Effect on IKZF3 expression in human Jurkat cells at 100 nM measured after 8 hrs by proteomics analysis; assay type: functional, cell-based
Jurkat [25] = assay: Effect on CK1alpha expression in human Jurkat cells at 100 nM measured after 8 hrs by proteomics analysis; assay type: functional, cell-based
Jurkat [26] = assay: Effect on GSPT1 expression in human Jurkat cells at 100 nM measured after 8 hrs by proteomics analysis; assay type: functional, cell-based
[27] = target: T2, Protein cereblon/Tyrosine-protein kinase ITK/TSK (Mus musculus) (UniProt Q8C7D2+Q03526); assay: In vivo PROTAC activity at CRBN/ITK xenografted in Balb/c mouse peripheral blood assessed as prolongation of ITK degradation at 20 mg/kg, ip measured for 2 to 16 hrs by Western blot analysis; assay type: functional, organism-based; conditions: time 2-16 hrs
[28] = target: T2, Protein cereblon/Tyrosine-protein kinase ITK/TSK (Mus musculus); assay: In vivo PROTAC activity at CRBN/ITK xenografted in Balb/c mouse spleen assessed as prolongation of ITK degradation at 20 mg/kg, ip measured for 2 to 16 hrs by Western blot analysis; assay type: functional, organism-based; conditions: time 2-16 hrs
[29] = target: T2, Protein cereblon/Tyrosine-protein kinase ITK/TSK (Mus musculus); assay: In vivo PROTAC activity at CRBN/ITK xenografted in Balb/c mouse assessed as reduction in cytokine IL-2 production at 25 mg/kg, ip preincubated for 6 hrs followed by abti-CD3 stimulation and measured after 1.5 hrs by ELISA method relative to control; assay type: functional, organism-based; set-up: scale not given: the % may be the effect or the level left; conditions: time 7.5 hrs
[30] = target: T2, Protein cereblon/Tyrosine-protein kinase ITK/TSK (Mus musculus); assay: (§1) PROTAC activity at CRBN/ITK in Balc/c mouse Primary splenic cell assessed as ITK degradation by immunoblotting analysis; assay type: cell-based; conditions: dose 0.32-5000 nM
[31] = target: T3, Protein cereblon/Tyrosine-protein kinase ITK/TSK (Mus musculus, UniProt Q8C7D2+Q03526); assay: as §1; assay type: cell-based
T3 sequence (Q8C7D2 whole entry): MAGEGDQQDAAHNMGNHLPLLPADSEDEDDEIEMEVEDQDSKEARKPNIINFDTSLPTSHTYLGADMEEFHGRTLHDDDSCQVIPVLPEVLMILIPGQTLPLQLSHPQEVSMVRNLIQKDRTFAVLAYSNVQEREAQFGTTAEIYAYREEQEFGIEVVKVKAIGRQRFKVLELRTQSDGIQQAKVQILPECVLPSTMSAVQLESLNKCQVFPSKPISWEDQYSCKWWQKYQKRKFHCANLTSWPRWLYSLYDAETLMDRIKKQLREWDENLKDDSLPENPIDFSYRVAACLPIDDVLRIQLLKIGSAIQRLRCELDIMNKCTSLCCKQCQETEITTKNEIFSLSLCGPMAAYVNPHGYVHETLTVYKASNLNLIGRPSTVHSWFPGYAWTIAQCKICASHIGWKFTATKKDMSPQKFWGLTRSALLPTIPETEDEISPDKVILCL
T3 sequence (Q03526 whole entry): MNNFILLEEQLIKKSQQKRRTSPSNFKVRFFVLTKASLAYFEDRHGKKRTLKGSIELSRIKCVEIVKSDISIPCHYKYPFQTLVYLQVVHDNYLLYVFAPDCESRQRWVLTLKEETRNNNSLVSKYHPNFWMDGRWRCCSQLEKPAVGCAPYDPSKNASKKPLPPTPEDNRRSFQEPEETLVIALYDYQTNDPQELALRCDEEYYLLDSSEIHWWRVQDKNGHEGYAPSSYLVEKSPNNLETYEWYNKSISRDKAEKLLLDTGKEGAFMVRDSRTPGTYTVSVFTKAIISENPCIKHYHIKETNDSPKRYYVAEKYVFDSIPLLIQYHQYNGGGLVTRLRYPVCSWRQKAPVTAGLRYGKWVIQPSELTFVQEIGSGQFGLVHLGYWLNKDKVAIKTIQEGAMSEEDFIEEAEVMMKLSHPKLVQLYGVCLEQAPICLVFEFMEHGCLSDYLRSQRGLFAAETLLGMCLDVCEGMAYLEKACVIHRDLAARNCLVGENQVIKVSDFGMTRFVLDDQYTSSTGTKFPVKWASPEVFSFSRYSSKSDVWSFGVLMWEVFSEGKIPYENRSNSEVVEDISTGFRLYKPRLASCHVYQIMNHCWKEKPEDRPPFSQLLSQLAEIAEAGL

[32] = target: T2, Protein cereblon/Tyrosine-protein kinase ITK/TSK (Mus musculus); assay: PROTAC activity at CRBN/ITK in Balc/c mouse Primary splenic cell assessed as maximum degradation at 0.32 to 5000 nM by immunoblotting analysis relative to control; assay type: cell-based; conditions: dose 0.32-5000 nM

Chain of Interleukin-2 (P60568 whole entry): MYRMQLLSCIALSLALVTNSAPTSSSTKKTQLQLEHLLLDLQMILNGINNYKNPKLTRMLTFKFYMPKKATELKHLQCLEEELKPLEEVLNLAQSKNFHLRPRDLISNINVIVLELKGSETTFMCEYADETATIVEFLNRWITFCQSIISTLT

EC50 [1]: 3.6 nM
Emax [2]: 95%
EC50 (Interleukin-2): 35.2 nM
AUC(0-t) at 24 h [3]: 15100 ng·h/mL
AUC(0-t) at 24 h [4]: 25900 ng·h/mL
AUC(0-inf) [5]: 15400 ng·h/mL
AUC(0-inf) [6]: 27300 ng·h/mL
half-life [7]: 4.39 h
half-life [8]: 5.75 h
Vd [9]: 2.06 L/kg
Vdss [10]: 3.06 L/kg
clearance [11]: 5.4 mL/min/kg
CL/F [12]: 6.1 mL/min/kg
Cmax [13]: 4910 ng/mL
Cmax [14]: 3420 ng/mL
MRT last at 24 h [15]: 4.42 h
MRT last at 24 h [16]: 5.84 h
bioavailability [17]: 88.4%
fold change (FC) [22]: 0.37
Activity [27]: Active
Activity [28]: Active
Activity [29]: 70%
Activity [30]: Dose-Dependent Effect
DC50 [31]: 2.1 nM
Emax [32]: > 99%
Structure (SMILES): CC1(C)CCc2c(C(=O)Nc3cnn([C@@H](CCN4CCN(CCC5CCN(c6ccc7c(c6)C(=O)N(C6CCC(=O)NC6=O)C7=O)CC5)CC4)c4ccccc4)c3)n[nH]c2C1.O=C(O)C(F)(F)F (stereo partly drawn)
Activity [18]: Non-Toxic
Activity [19]: Non-Toxic
Activity [20]: Non-Toxic
Activity [21]: Non-Toxic
Activity (Jurkat [23]): inactive
Activity (Jurkat [24]): inactive
Activity (Jurkat [25]): inactive
Activity (Jurkat [26]): inactive
